# Test results reported in patent US9095573B2, “Method of biasing implanted human neural stem cells away from differentiation into glial cells by (+)phenserine to modulate the concentration of soluble βAPP in tissue or CSF” (priority 2005, dated 2015).
# What was measured:
# APP mRNA = experiment: Real time RT-PCR analysis of APP gene expression in cortical and hippocampal tissues; assay type: in vivo; settings: both APP23 and wild-type mice
# Procedure: (§1) Animals were subsequently divided into two groups that were either sacrificed following 14 days treatment (n=17 APP23 and n=13 wild-type, respectively) or received transplantation of HSNC into the lateral ventricle (n=13 APP23 mice and n=12 wild-type, respectively). […] Brains were removed, dissected into the hippocampus and cortex, and tissue samples were maintained on dry ice and stored at −80° C. until Western blotting and PCR experiments were performed. For the group of transplanted animals, these were transcardially perfused with PBS and 4% paraformaldehyde (pH 7.4). Brains were removed and post-fixed for 8-12 h in 4% paraformaldehyde, and cryoprotected in 20% sucrose-PBS overnight. […]
# Total RNA from hippocampal and cortical tissues from each animal treated with either (+)-phenserine or saline was isolated with Trizol reagent (Invitrogen) according to the manufacturer's protocol. […] Relative quantification with Real-time PCR was determined using the MyiQ Real-Time PCR Detection System Software (Bio-Rad), and reactions were performed in a thermal iCycler using the Bio-Rad MyiQ IQ SYBR Green Supermix (Bio-Rad) according to the following conditions; denaturation of cDNA for 5 min at 94° C.; amplification (40 cycles) for 30 sec at 94° C., annealing at 56° C. for 30 sec, and extension at 72° C. for 30 sec, with a final extension at 72° C. for 5 min. […]
# [1] = test system: transplanted human neural stem cells (HNSCs); experiment: Glial differentiation of transplanted HNSCs (BrdU+/GFAP+ cell counts, fluorescent immunohistochemistry); assay type: in vivo, APP23 and wild-type mice; settings: hippocampus of wild-type mice; 6 weeks after HNSC transplantation; 25 mg/kg
# Procedure: (§2) HNSCs originally isolated from fetal cortical tissue were purchased from BioWhittaker (Walkersville, Md.) and the cells were expanded and passaged in a serum-free culture medium, as described in detail previously (Brannen and Sugaya, 2000). Briefly, HNSCs were cultured in 20 ml serum-free supplemented growth medium consisting of Ham's F12/DMEM (Gibco, Burlington, ON), EGF (20 ng/ml, R & D Systems), FGF (20 ng/ml, R & D Systems, Minneapolis, Minn.), B27 (1:50, Gibco), heparin (5 μg/ml, Sigma, St. Louis, Mo.) and antibiotic-antimycotic mixure (1:100, Gibco) at 37° C. in a 5% humidified incubation chamber (Brannen and Sugaya, 2000). Prior to transplantation, HNSCs were incubated with 3 μM bromo-deoxyuridine (BrdU, Sigma) for 48 hr to label cell nuclei to distinguish them from the host cells.
# as §1, with “7.4).” for “7.4). Brains were removed and post-fixed for 8-12 h in 4% paraformaldehyde, and cryoprotected in 20% sucrose-PBS overnight.”
# [2] = test system: transplanted human neural stem cells (HNSCs); experiment: Neuronal differentiation of transplanted HNSCs (BrdU+/β-III tubulin+ cell counts, fluorescent immunohistochemistry); assay type: in vivo, APP23 and wild-type mice; settings: wild-type mice, CA1 hippocampal region only; p<0.05; 25 mg/kg
# Procedure: as §2
# as §1, with “7.4).” for “7.4). Brains were removed and post-fixed for 8-12 h in 4% paraformaldehyde, and cryoprotected in 20% sucrose-PBS overnight.”
# cholinesterase = settings: Greig et al., U.S. Patent Pub. 2004/0024043 and 2004/0138282; cited from earlier work
substance,measurement,setting,value
(+)-phenserine,change in APP gene expression,APP mRNA,no significant changes
same,difference in number of BrdU+/GFAP+ double immuno-positive cells,[1],No significant differences
same,increase in number of BrdU+/β-III tubulin+ cells,[2],40%
same,cholinesterase activity,cholinesterase,lacks cholinesterase activity
